From US20230391772A1, “METHODS AND COMPOSITIONS FOR TARGETED PROTEIN DEGRADATION” (Ranok Therapeutics (Hangzhou) Co. Ltd., priority 2020, published 2023)
pEC50, pIC50: −log10 of the molar value.

Tests used:
[1] = system: NCI-H358 human non-small cell lung cancer; test: NCI-H358 CCK-8 proliferation assay; type: cell-based; conditions: NCI-H358 cells, 72 hr
Procedure, shortened: (§1)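 MIA PaCa-2 (2 copies KRAS(G12C)), NCI-H358 and NCI-H23 (1 copy KRAS(G12C) each) were exposed to compound in 3-fold serial dilutions from 20 μM to 1.02 nM. Viability was read as CCK-8 absorbance, and % inhibition was computed against DMSO-treated cells, with cell-free DMSO medium as blank.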

[2] = system: NCI-H23 human non-small cell lung cancer; test: NCI-H23 CCK-8 proliferation assay; type: cell-based; conditions: NCI-H23 cells, 72 hr
Method: The following cancer cell lines were employed: BT-474 human breast carcinoma (ATCC, #HTB-20); MIA PaCa-2 human pancreatic carcinoma [2 copies KRAS(G12C)](ATCC, #CRL-1420); NCI-H23 human non-small cell lung cancer [1 copy KRAS(G12C)](ATCC, #CRL-5800); NCI-H358 human non-small cell lung cancer [1 copy KRAS(G12C)](ATCC, #CRL-5807); LU65A human lung carcinoma (Pharmaron, Beijing, China). Cell lines were cultured essentially according to ATCC and Pharmaron recommendations.
Cancer Cell Line Proliferation (CCK-8) Assays
3-fold serial dilutions of each test compound were prepared ranging from 20 μM to 1.02 nM.
% Inhibition=100−(D−B)/(S−B)*100%. • S: Absorbance of cells treated with DMSO • D: Absorbance of compound-treated cells • B: Absorbance of medium with DMSO without cells

HSP90a protein = molecular target: T1, HSP90a protein (Homo sapiens, UniProt P07900); test: HSP90α-binding fluorescent polarization (FP) assay, BODIPY-labeled RNK04010 probe; conditions: FP competition with RNK04010 (BODIPY-labeled), 5 nM, 300 min at 25° C.
T1 construct: purchased BPS Bioscience 50298
Procedure, shortened: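 Compounds (20 μM down to 5.2 nM, 2.5-fold steps) compete with a 5 nM fluorescent tracer for N-terminal HSP90a, measured by fluorescence polarization. With FITC-geldanamycin, plates sit 120 min at 25 °C. With BODIPY-RNK04010, they sit 300 min at 25 °C.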

KRAS(G12C) = KRAS(G12C) (Homo sapiens, UniProt P01116, G12C); test: KRAS(G12C)/SOS1 homogeneous time-resolved fluorescence (HTRF) assay; design: purchased Cisbio 63ADK000CB16PEG; conditions: absence of GTP, 4° C. for 3 hr, read-out: KRAS (G12C) binding
Procedure, shortened: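 Three-hour incubation at 4 °C of 3-fold compound dilutions (lowest 1.02 nM) with KRAS(G12C), SOS1 and detection reagents, GTP absent. Disruption of the KRAS(G12C)/SOS1 complex detected by time-resolved fluorescence.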

[3] = system: MIA PaCa-2 human pancreatic carcinoma; test: MIA PaCa-2 CCK-8 proliferation assay; type: cell-based; conditions: Homo sapiens, MIA PaCa-2, 72 h, MIA PaCa-2 cells
Procedure, shortened: as §1

KRAS(G12C), sequence (P01116 1-188 isoform P01116-2 G12C): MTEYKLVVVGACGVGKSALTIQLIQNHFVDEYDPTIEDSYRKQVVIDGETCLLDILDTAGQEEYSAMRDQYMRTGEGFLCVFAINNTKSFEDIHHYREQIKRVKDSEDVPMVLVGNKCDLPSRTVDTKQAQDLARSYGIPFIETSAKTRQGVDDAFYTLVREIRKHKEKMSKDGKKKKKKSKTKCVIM

SMILES	pEC50 [1]	pEC50 [2]	pIC50 (HSP90a protein)	pIC50 (KRAS(G12C))	pEC50 [3]
C=CC(=O)N1CCN(c2nc(NCCC(=O)NCc3ccc(CN4CCC(Cc5ccc(-n6c(C(=O)NCC(F)(F)F)nnc6-c6cc(C(C)C)c(O)cc6O)cc5)CC4)cc3)nc3c2CCN(c2cccc4ccccc24)C3)C[C@H]1CC#N [Compound 95, (R)-4-(4-((1-(4-((3-((4-(4-acryloyl-3-(cyanomethyl)piperazin-1-yl)-7-(naphthalen-1-yl)-5,6,7,8-tetrahydropyrido[3,4-d]pyrimidin-2-yl)amino)propanamido)methyl)benzyl)piperidin-4-yl)methyl)phenyl)-5-(2,4-dihydroxy-5-isopropylphenyl)-N-(2,2,2-trifluoroethyl)-4H-1,2,4-triazole-3-carboxamide, trifluoroacetic acid]	6.00 to 7.00	6.00 to 7.00	6.00 to 7.00	< 6.00	
CCC(=O)N1CCN(c2nc(NCCC(=O)N3CCC(CN4CCN(Cc5ccc(-n6c(C(=O)NC7(C)CC7)nnc6-c6cc(CC)c(O)cc6O)cc5)CC4)CC3)nc3c2CCN(c2cc(O)cc4ccccc24)C3)CC1 [Compound 120, 5-(5-ethyl-2,4-dihydroxyphenyl)-4-(4-((4-((1-(3-((7-(3-hydroxynaphthalen-1-yl)-4-(4-propionylpiperazin-1-yl)-5,6,7,8-tetrahydropyrido[3,4-d]pyrimidin-2-yl)amino)propanoyl)piperidin-4-yl)methyl)piperazin-1-yl)methyl)phenyl)-N-(1-methylcyclopropyl)-4H-1,2,4-triazole-3-carboxamide, trifluoroacetic acid]	> 7.00	6.00 to 7.00	6.00 to 7.00		6.00 to 7.00
C=CC(=O)N1CCN(c2nc(NCCC(=O)N3CCC(CN4CCN(Cc5ccc(-n6c(C(=O)NCC(F)(F)F)nnc6-c6cc(C)c(O)cc6O)cc5)CC4)CC3)nc3c2CCN(c2cccc4cccc(Cl)c24)C3)C[C@H]1CC#N [Compound 79, (R)-4-(4-((4-((1-(3-((4-(4-acryloyl-3-(cyanomethyl)piperazin-1-yl)-7-(8-chloronaphthalen-1-yl)-5,6,7,8-tetrahydropyrido[3,4-d]pyrimidin-2-yl)amino)propanoyl)piperidin-4-yl)methyl)piperazin-1-yl)methyl)phenyl)-5-(2,4-dihydroxy-5-methylphenyl)-N-(2,2,2-trifluoroethyl)-4H-1,2,4-triazole-3-carboxamide, trifluoroacetic acid]	6.00 to 7.00	6.00 to 7.00	6.00 to 7.00	< 6.00	
CCC(=O)N1CCN(c2nc(NCCC(=O)NCc3ccc(CN4CCC(Cc5ccc(-n6c(C(=O)NCC(F)(F)F)nnc6-c6cc(C(C)C)c(O)cc6O)cc5)CC4)cc3)nc3c2CCN(c2cc(O)cc4ccccc24)C3)CC1 [Compound 62, 5-(2,4-dihydroxy-5-isopropylphenyl)-4-(4-((1-(4-((3-((7-(3-hydroxynaphthalen-1-yl)-4-(4-propionylpiperazin-1-yl)-5,6,7,8-tetrahydropyrido[3,4-d]pyrimidin-2-yl)amino)propanamido)methyl)benzyl)piperidin-4-yl)methyl)phenyl)-N-(2,2,2-trifluoroethyl)-4H-1,2,4-triazole-3-carboxamide, trifluoroacetic acid]	6.00 to 7.00	6.00 to 7.00	6.00 to 7.00	< 6.00	
CCC(=O)N1CCN(c2nc(NCCC(=O)N3CCC(CN4CCN(Cc5ccc(-n6c(C(=O)NC(C)C)nnc6-c6cc(CC)c(O)cc6O)cc5)CC4)CC3)nc3c2CCN(c2cc(O)cc4ccccc24)C3)CC1 [Compound 64, 5-(5-ethyl-2,4-dihydroxyphenyl)-4-(4-((4-((1-(3-((7-(3-hydroxynaphthalen-1-yl)-4-(4-propionylpiperazin-1-yl)-5,6,7,8-tetrahydropyrido[3,4-d]pyrimidin-2-yl)amino)propanoyl)piperidin-4-yl)methyl)piperazin-1-yl)methyl)phenyl)-N-isopropyl-4H-1,2,4-triazole-3-carboxamide, trifluoroacetic acid]	6.00 to 7.00	6.00 to 7.00	6.00 to 7.00	< 6.00	
CC(=O)N1CCN(c2nc(NCCC(=O)N3CCC(Cc4ccc(CN(C)Cc5ccc(-n6c(C(=O)NCC(F)(F)F)nnc6-c6cc(C(C)C)c(O)cc6O)cc5)cc4)CC3)nc3c2CCN(c2cc(O)cc4ccccc24)C3)CC1 [Compound 112, 4-(4-(((4-((1-(3-((4-(4-acetylpiperazin-1-yl)-7-(3-hydroxynaphthalen-1-yl)-5,6,7,8-tetrahydropyrido[3,4-d]pyrimidin-2-yl)amino)propanoyl)piperidin-4-yl)methyl)benzyl)(methyl)amino)methyl)phenyl)-5-(2,4-dihydroxy-5-isopropylphenyl)-N-(2,2,2-trifluoroethyl)-4H-1,2,4-triazole-3-carboxamide, trifluoroacetic acid]	6.00 to 7.00	6.00 to 7.00	6.00 to 7.00		6.00 to 7.00
CCC(=O)N1CCN(c2nc(NCCC(=O)N3CCC(CN4CCN(Cc5ccc(-n6c(C(=O)NC7CC7)nnc6-c6cc(CC)c(O)cc6O)cc5)CC4)CC3)nc3c2CCN(c2cc(O)cc4ccccc24)C3)CC1 [Compound 116, N-cyclopropyl-5-(5-ethyl-2,4-dihydroxyphenyl)-4-(4-((4-((1-(3-((7-(3-hydroxynaphthalen-1-yl)-4-(4-propionylpiperazin-1-yl)-5,6,7,8-tetrahydropyrido[3,4-d]pyrimidin-2-yl)amino)propanoyl)piperidin-4-yl)methyl)piperazin-1-yl)methyl)phenyl)-4H-1,2,4-triazole-3-carboxamide, trifluoroacetic acid]	6.00 to 7.00	6.00 to 7.00	> 7.00		6.00 to 7.00
CC(=O)N1CCN(c2nc(NCCC(=O)N3CCC(CN4CCN(Cc5ccc(-n6c(O)nnc6-c6cc(C(C)C)c(O)cc6O)cc5)CC4)CC3)nc3c2CCN(c2cc(O)cc4ccccc24)C3)CC1 [Compound 21, 3-((4-(4-acetylpiperazin-1-yl)-7-(3-hydroxynaphthalen-1-yl)-5,6,7,8-tetrahydropyrido[3,4-d]pyrimidin-2-yl)amino)-1-(4-((4-(4-(3-(2,4-dihydroxy-5-isopropylphenyl)-5-hydroxy-4H-1,2,4-triazol-4-yl)benzyl)piperazin-1-yl)methyl)piperidin-1-yl)propan-1-one, trifluoroacetic acid]	6.00 to 7.00	6.00 to 7.00	> 7.00		6.00 to 7.00
C=CC(=O)N1CCN(c2nc(NCCC(=O)NCC3CCC(C(=O)N4CCN(Cc5ccc(-n6c(O)nnc6-c6cc(CC)c(O)cc6O)cc5)CC4)CC3)nc3c2CCN(c2cc(O)cc4ccccc24)C3)CC1 (stereo not shown) [Compound 23, 3-((4-(4-acryloylpiperazin-1-yl)-7-(3-hydroxynaphthalen-1-yl)-5,6,7,8-tetrahydropyrido[3,4-d]pyrimidin-2-yl)amino)-N-((4-(4-(4-(3-(5-ethyl-2,4-dihydroxyphenyl)-5-hydroxy-4H-1,2,4-triazol-4-yl)benzyl)piperazine-1-carbonyl)cyclohexyl)methyl)propanamide, trifluoroacetic acid]	6.00 to 7.00	6.00 to 7.00	6.00 to 7.00	< 6.00	
C=CC(=O)N1CCN(c2nc(NCCC(=O)NCc3ccc(CN4CCC(Cc5ccc(-n6c(C(=O)NCC(F)(F)F)nnc6-c6cc(C(C)C)c(O)cc6O)cc5)CC4)cc3)nc3c2CCN(c2cc(O)cc4ccccc24)C3)CC1 [Compound 25, 4-(4-((1-(4-((3-((4-(4-acryloylpiperazin-1-yl)-7-(3-hydroxynaphthalen-1-yl)-5,6,7,8-tetrahydropyrido[3,4-d]pyrimidin-2-yl)amino)propanamido)methyl)benzyl)piperidin-4-yl)methyl)phenyl)-5-(2,4-dihydroxy-5-isopropylphenyl)-N-(2,2,2-trifluoroethyl)-4H-1,2,4-triazole-3-carboxamide, trifluoroacetic acid]	6.00 to 7.00	6.00 to 7.00	> 7.00		6.00 to 7.00
